Values quoted from earlier work in patent US8497291B2 (Cyclacel Limited, priority 2005, dated 2013).
Read-outs that look alike come from different tables or passages of the source.

How the values were obtained:
[1] = phase I, patients with a variety of cancers
[2] = tested on: variety of cell lines, xenograft and metastatic cancer model
colon cancer = conditions: model of colon cancer

## CCCCCCCCCCCCCCCC(=O)Nc1ccn([C@@H]2O[C@H](CO)[C@@H](O)[C@@H]2C#N)c(=O)n1 [CYC682, 2′-cyano-2′-deoxy-N^4-palmitoyl-1-β-D-arabinofuranosylcytosine]
[1]
  dose limiting toxicity: myelosuppression
  tolerability in humans: well tolerated
[2]; as demonstrated in EP 536936
  anti-tumour activity: excellent anti-tumour activity
[2]; variety of cell lines, xenograft and metastatic cancer model
  anti-tumour activity: potent anti-tumour activity
Colon cancer
  anticancer activity: strong anticancer activity
  increasing survival compared with gemcitabine or 5-FU: superior
  preventing the spread of colon cancer metastases to the liver compared with gemcitabine or 5-FU: superior
